Experimental data from ChEMBL document CHEMBL1201862, “PubChem BioAssay data set” (2004).
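Interpolation was linear, between the two tested concentrations surrounding the appropriate level; five concentrations were tested over 48 hours in 96-well plates. The concentration for 50% growth inhibition is given as GI50.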 Active and inactive are the calls of the source. Cut-off read from the data, not from the text of the source: active = GI50 up to about 1.1 µM and inactive = higher.

What was measured:
Test in all cases: NCI-60 cell line screen, 48 h
786-0 = test system: 786-0
A498 = test system: A498
A549 = test system: A549
ACHN = test system: ACHN
CAKI-1 = test system: CAKI-1
CCRF-CEM = test system: CCRF-CEM
COLO 205 = test system: COLO 205
DLD-1 = test system: DLD-1
DMS-114 = test system: DMS-114
DMS-273 = test system: DMS-273
EKVX = test system: EKVX
HCC 2998 = test system: HCC 2998
HCT-15 = test system: HCT-15
HL-60 = test system: HL-60
HOP-18 = test system: HOP-18
HOP-62 = test system: HOP-62
HOP-92 = test system: HOP-92
HT-29 = test system: HT-29
IGROV-1 = test system: IGROV-1
K562 = test system: K562
KM-20L2 = test system: KM-20L2
KM12 = test system: KM12
LOX IMVI = test system: LOX IMVI
LXFL 529 = test system: LXFL 529
M14 = test system: M14
M19-MEL = test system: M19-MEL
MOLT-4 = test system: MOLT-4
Malme-3M = test system: Malme-3M
NCI-H226 = test system: NCI-H226
NCI-H23 = test system: NCI-H23
NCI-H460 = test system: NCI-H460
OVCAR-3 = test system: OVCAR-3
OVCAR-4 = test system: OVCAR-4
OVCAR-5 = test system: OVCAR-5
OVCAR-8 = test system: OVCAR-8
RPMI-8226 = test system: RPMI-8226
RXF 393 = test system: RXF 393
RXF 631 = test system: RXF 631
SF-268 = test system: SF-268
SF-295 = test system: SF-295
SF-539 = test system: SF-539
SK-MEL-28 = test system: SK-MEL-28
SK-MEL-2 = test system: SK-MEL-2
SK-MEL-5 = test system: SK-MEL-5
SK-OV-3 = test system: SK-OV-3
SN12C = test system: SN12C
SNB-75 = test system: SNB-75
SNB-78 = test system: SNB-78
SW-620 = test system: SW-620
TK-10 = test system: TK-10
U-251 = test system: U-251
UACC-257 = test system: UACC-257
UACC-62 = test system: UACC-62
UO-31 = test system: UO-31
XF498 = test system: XF498
HCT-116 = test system: HCT-116
NCI-H522 = test system: NCI-H522
SR = test system: SR
SNB-19 = test system: SNB-19

## O=C1[C@@H]2C(c3ccccc3Br)=NO[C@@H]2C(=O)N1c1ccc(Cc2ccc(N3C(=O)[C@H]4C(c5ccccc5Br)=NO[C@H]4C3=O)cc2)cc1
786-0
  GI50: > 100 µM (inactive)
A498
  GI50: > 100 µM (inactive)
A549
  GI50: > 100 µM (inactive)
ACHN
  GI50: > 100 µM (inactive)
CAKI-1
  GI50: > 100 µM (inactive)
CCRF-CEM
  GI50: > 100 µM (inactive)
COLO 205
  GI50: > 100 µM (inactive)
DLD-1
  GI50: > 100 µM (inactive)
DMS-114
  GI50: > 100 µM (inactive)
DMS-273
  GI50: > 100 µM (inactive)
EKVX
  GI50: > 100 µM (inactive)
HCC 2998
  GI50: > 100 µM (inactive)
HCT-15
  GI50: > 100 µM
HL-60
  GI50: > 100 µM (inactive)
HOP-18
  GI50: 45.6 µM (inactive)
HOP-62
  GI50: > 100 µM (inactive)
HOP-92
  GI50: > 100 µM (inactive)
HT-29
  GI50: > 100 µM (inactive)
IGROV-1
  GI50: > 100 µM (inactive)
K562
  GI50: > 100 µM (inactive)
KM-20L2
  GI50: > 100 µM (inactive)
KM12
  GI50: > 100 µM (inactive)
LOX IMVI
  GI50: > 100 µM (inactive)
LXFL 529
  GI50: > 100 µM (inactive)
M14
  GI50: > 100 µM (inactive)
M19-MEL
  GI50: > 100 µM (inactive)
MOLT-4
  GI50: > 100 µM (inactive)
Malme-3M
  GI50: > 100 µM (inactive)
NCI-H226
  GI50: 96.4 µM (inactive)
NCI-H23
  GI50: > 100 µM (inactive)
NCI-H460
  GI50: > 100 µM (inactive)
OVCAR-3
  GI50: > 100 µM (inactive)
OVCAR-4
  GI50: > 100 µM (inactive)
OVCAR-5
  GI50: > 100 µM (inactive)
OVCAR-8
  GI50: > 100 µM (inactive)
RPMI-8226
  GI50: > 100 µM (inactive)
RXF 393
  GI50: 50.2 µM (inactive)
RXF 631
  GI50: > 100 µM (inactive)
SF-268
  GI50: > 100 µM (inactive)
SF-295
  GI50: > 100 µM (inactive)
SF-539
  GI50: > 100 µM (inactive)
SK-MEL-28
  GI50: > 100 µM (inactive)
SK-MEL-2
  GI50: > 100 µM (inactive)
SK-MEL-5
  GI50: > 100 µM (inactive)
SK-OV-3
  GI50: > 100 µM (inactive)
SN12C
  GI50: > 100 µM (inactive)
SNB-75
  GI50: 77.3 µM (inactive)
SNB-78
  GI50: > 100 µM (inactive)
SW-620
  GI50: > 100 µM (inactive)
TK-10
  GI50: > 100 µM (inactive)
U-251
  GI50: > 100 µM (inactive)
UACC-257
  GI50: > 100 µM (inactive)
UACC-62
  GI50: > 100 µM (inactive)
UO-31
  GI50: 54.8 µM (inactive)
XF498
  GI50: 67.9 µM (inactive)

## O=c1nc(NC2CCCCO2)ccn1CCO (stereo unspecified)
786-0
  GI50: > 100 µM (inactive)
A498
  GI50: > 100 µM (inactive)
A549
  GI50: > 100 µM (inactive)
ACHN
  GI50: > 100 µM (inactive)
CAKI-1
  GI50: > 100 µM (inactive)
CCRF-CEM
  GI50: > 100 µM (inactive)
COLO 205
  GI50: > 100 µM (inactive)
DLD-1
  GI50: > 100 µM (inactive)
DMS-114
  GI50: > 100 µM (inactive)
DMS-273
  GI50: > 100 µM (inactive)
EKVX
  GI50: > 100 µM (inactive)
HCT-116
  GI50: > 100 µM (inactive)
HCT-15
  GI50: > 100 µM
HL-60
  GI50: > 100 µM (inactive)
HOP-18
  GI50: > 100 µM (inactive)
HOP-62
  GI50: > 100 µM (inactive)
HOP-92
  GI50: > 100 µM (inactive)
HT-29
  GI50: > 100 µM (inactive)
IGROV-1
  GI50: > 100 µM (inactive)
K562
  GI50: > 100 µM (inactive)
KM-20L2
  GI50: > 100 µM (inactive)
KM12
  GI50: > 100 µM (inactive)
LOX IMVI
  GI50: > 100 µM (inactive)
LXFL 529
  GI50: > 100 µM (inactive)
M14
  GI50: > 100 µM (inactive)
M19-MEL
  GI50: > 100 µM (inactive)
Malme-3M
  GI50: > 100 µM (inactive)
NCI-H226
  GI50: > 100 µM (inactive)
NCI-H460
  GI50: > 100 µM (inactive)
NCI-H522
  GI50: > 100 µM (inactive)
OVCAR-3
  GI50: > 100 µM (inactive)
OVCAR-4
  GI50: > 100 µM (inactive)
OVCAR-5
  GI50: > 100 µM (inactive)
OVCAR-8
  GI50: > 100 µM (inactive)
RPMI-8226
  GI50: > 100 µM (inactive)
RXF 393
  GI50: > 100 µM (inactive)
RXF 631
  GI50: > 100 µM (inactive)
SF-268
  GI50: > 100 µM (inactive)
SF-295
  GI50: > 100 µM (inactive)
SF-539
  GI50: > 100 µM (inactive)
SK-MEL-28
  GI50: > 100 µM (inactive)
SK-MEL-2
  GI50: > 100 µM (inactive)
SK-MEL-5
  GI50: > 100 µM (inactive)
SK-OV-3
  GI50: > 100 µM (inactive)
SN12C
  GI50: > 100 µM (inactive)
SNB-75
  GI50: > 100 µM (inactive)
SNB-78
  GI50: > 100 µM (inactive)
SR
  GI50: > 100 µM (inactive)
SW-620
  GI50: > 100 µM (inactive)
TK-10
  GI50: > 100 µM (inactive)
U-251
  GI50: > 100 µM (inactive)
UACC-257
  GI50: > 100 µM (inactive)
UACC-62
  GI50: > 100 µM (inactive)
UO-31
  GI50: > 100 µM (inactive)
XF498
  GI50: 51.4 µM (inactive)

## CCN(CC)c1ccc(/N=N/c2ccc(-c3nc4ccc[n+](C)c4o3)cc2)cc1
786-0
  GI50: 11.4 µM (inactive)
A498
  GI50: 15.7 µM (inactive)
A549
  GI50: 9.77 µM (inactive)
CAKI-1
  GI50: 12.9 µM (inactive)
CCRF-CEM
  GI50: 3.27 µM (inactive)
COLO 205
  GI50: 2.29 µM (inactive)
DLD-1
  GI50: 7.33 µM (inactive)
DMS-114
  GI50: 3.7 µM (inactive)
DMS-273
  GI50: 10.5 µM (inactive)
EKVX
  GI50: 13.6 µM (inactive)
HCT-116
  GI50: 4.18 µM (inactive)
HCT-15
  GI50: 10.3 µM
HL-60
  GI50: 2.06 µM (inactive)
HOP-18
  GI50: 23.7 µM (inactive)
HOP-62
  GI50: 16.3 µM (inactive)
HOP-92
  GI50: 15.2 µM (inactive)
HT-29
  GI50: 11.3 µM (inactive)
IGROV-1
  GI50: 12.9 µM (inactive)
K562
  GI50: 2.4 µM (inactive)
KM-20L2
  GI50: 13 µM (inactive)
KM12
  GI50: 11.1 µM (inactive)
LOX IMVI
  GI50: 4.3 µM (inactive)
LXFL 529
  GI50: 3.81 µM (inactive)
M14
  GI50: 12.1 µM (inactive)
M19-MEL
  GI50: 4.98 µM (inactive)
MOLT-4
  GI50: 3.66 µM (inactive)
Malme-3M
  GI50: 2.31 µM (inactive)
NCI-H226
  GI50: 11.5 µM (inactive)
NCI-H23
  GI50: 12.8 µM (inactive)
NCI-H460
  GI50: 12.6 µM (inactive)
NCI-H522
  GI50: 4.93 µM (inactive)
OVCAR-3
  GI50: 10 µM (inactive)
OVCAR-4
  GI50: 12 µM (inactive)
OVCAR-5
  GI50: 3.54 µM (inactive)
OVCAR-8
  GI50: 5.11 µM (inactive)
RPMI-8226
  GI50: 2.75 µM (inactive)
RXF 393
  GI50: 10.7 µM (inactive)
RXF 631
  GI50: 12.7 µM (inactive)
SF-268
  GI50: 12.6 µM (inactive)
SF-295
  GI50: 14.8 µM (inactive)
SF-539
  GI50: 5.46 µM (inactive)
SK-MEL-2
  GI50: 12 µM (inactive)
SK-MEL-5
  GI50: 2.97 µM (inactive)
SK-OV-3
  GI50: 19.5 µM (inactive)
SN12C
  GI50: 15.5 µM (inactive)
SNB-19
  GI50: 13.3 µM (inactive)
SNB-75
  GI50: 11.6 µM (inactive)
SNB-78
  GI50: 11.4 µM (inactive)
SR
  GI50: 3.69 µM (inactive)
SW-620
  GI50: 4.76 µM (inactive)
TK-10
  GI50: 12.3 µM (inactive)
U-251
  GI50: 4.57 µM (inactive)
UACC-257
  GI50: 7.01 µM (inactive)
UACC-62
  GI50: 9.27 µM (inactive)
UO-31
  GI50: 12.7 µM (inactive)
XF498
  GI50: 11.3 µM (inactive)
